These results are taken from PMC4980083 (JCI insight, 2016).

The subject of assay [1] is LNCaP95 cells. Description: Cell cycle analysis of LNCaP95 cells. It counts as cell-based, human. As to conditions: I-EPI-002 5 μM, EPI-002 25 μM, 48 hours.
Assay [2] relates to ER LBD. Description: Fluorescence polarization competition binding, ER LBD. A general note: Fluorescence polarisation rises when a labelled molecule tumbles more slowly, as on binding a larger partner.
The target of assay [3] is T1, PRβ (Homo sapiens, UniProt P06401).
T1 sequence (P06401 1-933): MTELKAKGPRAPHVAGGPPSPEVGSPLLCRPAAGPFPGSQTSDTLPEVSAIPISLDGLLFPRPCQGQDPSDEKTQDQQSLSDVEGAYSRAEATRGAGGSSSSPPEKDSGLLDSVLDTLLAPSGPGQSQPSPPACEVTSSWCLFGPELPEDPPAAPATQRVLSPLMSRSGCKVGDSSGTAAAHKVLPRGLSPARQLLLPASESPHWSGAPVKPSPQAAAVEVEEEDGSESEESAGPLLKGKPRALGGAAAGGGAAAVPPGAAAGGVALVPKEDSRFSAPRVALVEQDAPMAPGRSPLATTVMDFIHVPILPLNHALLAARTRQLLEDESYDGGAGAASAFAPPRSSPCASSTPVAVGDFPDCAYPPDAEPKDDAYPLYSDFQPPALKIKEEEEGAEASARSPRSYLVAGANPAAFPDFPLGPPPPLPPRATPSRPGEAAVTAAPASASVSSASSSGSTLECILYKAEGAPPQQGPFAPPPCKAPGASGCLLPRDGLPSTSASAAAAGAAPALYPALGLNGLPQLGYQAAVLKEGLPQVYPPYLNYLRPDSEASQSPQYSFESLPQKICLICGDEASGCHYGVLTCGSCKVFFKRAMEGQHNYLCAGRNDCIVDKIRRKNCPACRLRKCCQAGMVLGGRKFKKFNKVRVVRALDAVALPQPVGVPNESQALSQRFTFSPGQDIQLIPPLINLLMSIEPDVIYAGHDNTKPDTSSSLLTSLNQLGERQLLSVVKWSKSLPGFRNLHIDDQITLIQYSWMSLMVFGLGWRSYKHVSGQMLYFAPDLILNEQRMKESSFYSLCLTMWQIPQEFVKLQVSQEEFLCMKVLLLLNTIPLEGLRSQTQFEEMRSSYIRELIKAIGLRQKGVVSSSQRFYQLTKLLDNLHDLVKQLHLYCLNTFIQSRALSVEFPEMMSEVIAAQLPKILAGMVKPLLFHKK
Description: PR transcriptional activity, PRE luciferase reporter. It counts as cell-based. As to conditions: 2 μM; progesterone 10 nM. On the technique in general: In a reporter assay the amount or activity of a reporter protein is the signal.

In assay [4] the target is T2, endogenous full-length AR (Homo sapiens, UniProt P10275, T878A).
T2 sequence (P10275 1-920 T878A): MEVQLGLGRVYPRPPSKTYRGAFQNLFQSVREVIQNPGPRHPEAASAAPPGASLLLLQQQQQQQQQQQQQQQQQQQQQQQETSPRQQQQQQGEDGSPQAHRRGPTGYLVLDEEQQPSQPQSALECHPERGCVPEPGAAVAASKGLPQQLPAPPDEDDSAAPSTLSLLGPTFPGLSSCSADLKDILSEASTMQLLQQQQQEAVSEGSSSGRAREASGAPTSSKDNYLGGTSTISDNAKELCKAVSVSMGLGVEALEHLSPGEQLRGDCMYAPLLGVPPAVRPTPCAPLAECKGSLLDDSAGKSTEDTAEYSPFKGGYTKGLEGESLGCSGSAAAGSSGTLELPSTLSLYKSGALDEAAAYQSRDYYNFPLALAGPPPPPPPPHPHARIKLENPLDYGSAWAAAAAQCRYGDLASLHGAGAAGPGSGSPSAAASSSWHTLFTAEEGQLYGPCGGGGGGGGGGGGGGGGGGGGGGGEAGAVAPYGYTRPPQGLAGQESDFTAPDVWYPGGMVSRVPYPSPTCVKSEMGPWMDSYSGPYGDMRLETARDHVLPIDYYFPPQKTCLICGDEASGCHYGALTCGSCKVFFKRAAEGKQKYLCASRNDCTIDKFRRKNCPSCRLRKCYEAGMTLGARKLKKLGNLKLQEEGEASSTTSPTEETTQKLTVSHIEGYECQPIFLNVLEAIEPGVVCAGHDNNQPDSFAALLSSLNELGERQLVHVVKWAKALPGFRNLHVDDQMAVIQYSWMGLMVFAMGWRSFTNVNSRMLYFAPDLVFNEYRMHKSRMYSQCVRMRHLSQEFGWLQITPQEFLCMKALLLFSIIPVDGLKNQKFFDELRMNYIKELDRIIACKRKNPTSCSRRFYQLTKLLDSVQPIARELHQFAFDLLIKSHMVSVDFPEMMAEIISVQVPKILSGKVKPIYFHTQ
Description: Probasin luciferase activity in LNCaP cells, endogenous full-length AR. As to conditions: I-EPI-002 2 μM, enzalutamide 5 μM; R1881 1 nM 24 hours.

Regarding 15-IodoEPI002 [I-EPI-002], in assay [1], the “decrease of S phase cells” value is recorded as not below 2 fold. Further, the “competition for ligand binding to ER LBD” value in assay [2] is “did not prevent ligand-binding”. For the same substance, the “inhibition of PR transcriptional activity” value in assay [3] is given as “did not inhibit”. For the same substance, the “inhibition of probasin luciferase activity, full-length AR” value in assay [4] is reported as “showed good inhibition”.
